Drawing on US8759333B2, “Di-azetidinyl diamide as monoacylglycerol lipase inhibitors” (Janssen Pharmaceutica, NV, priority 2010, dated 2014), this text covers IC50, activity and Kd for 16 compounds.

Where a chain is given by its changes, count along the chain named.

Test [1] addresses T1, wild type MGL (wt-MGLL 6H-11-313) (Homo sapiens, UniProt Q99685).
T1 construct: purified wild type MGL (wt-MGLL 6H-11-313); 6H (hexahistidine) (N)
T1 sequence (Q99685 1-303): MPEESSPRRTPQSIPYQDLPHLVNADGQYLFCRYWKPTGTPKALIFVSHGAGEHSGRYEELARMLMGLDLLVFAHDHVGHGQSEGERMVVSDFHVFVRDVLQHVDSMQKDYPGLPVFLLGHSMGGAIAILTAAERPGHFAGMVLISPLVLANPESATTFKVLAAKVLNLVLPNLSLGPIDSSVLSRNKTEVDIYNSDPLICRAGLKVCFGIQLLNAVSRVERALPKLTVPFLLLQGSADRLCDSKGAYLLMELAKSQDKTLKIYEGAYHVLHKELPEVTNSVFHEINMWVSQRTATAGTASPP
Kind of test: MGL Enzyme Activity Assay, purified wild type MGL, 4MU-B substrate. The format is biochemical. Conditions: wild type MGL 5 nM, 4MU-B 10 μM, 37° C.; read-out: MGL wild type inh IC50. The procedure:
All rate-based assays were performed in black 384-well polypropylene PCR microplates (Abgene) in a total volume of 30 μL. […] Final compound concentrations ranged from 17 to 0.0003 μM.
The IC50 values for the following compounds were determined using Microsoft Office Excel from a fit of the equation to the concentration-response plot of the fractional activity as a function of inhibitor concentration.

The next test has as its target T2, MGL (Rattus norvegicus, UniProt Q8R431).
T2 construct: one g rat brain was homogenized using a Polytron homogenizer; from tissue; host or cells: rat brain homogenate
T2 sequence (Q8R431 1-303): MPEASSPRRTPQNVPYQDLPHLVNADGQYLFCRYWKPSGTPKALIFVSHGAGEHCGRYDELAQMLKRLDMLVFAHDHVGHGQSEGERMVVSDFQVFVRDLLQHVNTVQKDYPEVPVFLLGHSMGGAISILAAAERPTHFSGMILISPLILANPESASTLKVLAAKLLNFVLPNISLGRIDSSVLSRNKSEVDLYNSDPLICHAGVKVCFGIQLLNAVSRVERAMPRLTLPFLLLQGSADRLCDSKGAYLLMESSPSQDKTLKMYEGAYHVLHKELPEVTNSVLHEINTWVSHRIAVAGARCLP
In words: 2-AG Accumulation Assay in rat brain homogenate. The format is biochemical. Conditions: percent of vehicle; for activity at 1 µM: compound @1 µM, read-out: Rat Brain 2AG % VehCntrl (%) @1 µM; for activity at 10 µM: compound @10 µM, read-out: Rat Brain 2AG % VehCntrl (%) @10 µM.

Another test deals with T3, mutant MGL (Homo sapiens, UniProt Q99685, L169S/L176S).
T3 construct: purified mutant MGL (mut-MGLL 11-313 L179S L186S)
T3 sequence (Q99685 1-303 L169S/L176S): T1 sequence (Q99685 1-303) with L169S, L176S
In words: MGL ThermoFluor Assay - Mutant. Format: binding. Conditions: 0.07 mg/ml mutant MGL, 100 μM ANS, pH 7.0. The procedure:
The ThermoFluor (TF) assay is a 384-well plate-based binding assay that measures thermal stability of proteins^1,2. The experiments were carried out using instruments available from Johnson & Johnson Pharmaceutical Research & Development, LLC. TF dye used in all experiments was 1,8-ANS (Invitrogen: A-47). Final TF assay conditions used for MGL studies were 0.07 mg/ml of mutant MGL, 100 μM ANS, 200 mM NaCl, 0.001% Tween-20 in 50 mM PIPES (pH=7.0).
Screening compound plates contained 100% DMSO compound solutions at a single concentration. […] Columns 12 and 24 were used as DMSO reference and contained no compound. […] Following compound dispension, protein and dye solutions were added to achieve the final assay volume of 3 μL.
Bar-coded assay plates were robotically loaded onto a thermostatically controlled PCR-type thermal block and then heated from 40 to 90° C. degrees at a ramp-rate of 1° C./min for all experiments. Fluorescence was measured by continuous illumination with UV light (Hamamatsu LC6), supplied via fiber optics and filtered through a band-pass filter (380-400 nm; >60D cutoff). Fluorescence emission of the entire 384-well plate was detected by measuring light intensity using a CCD camera (Sensys, Roper Scientific) filtered to detect 500±25 nm, resulting in simultaneous and independent readings of all 384 wells. A single image with 20-sec exposure time was collected at each temperature, and the sum of the pixel intensity in a given area of the assay plate was recorded vs temperature and fit to standard equations to yield the Tm^1. • 1.
The Kd values for certain compounds of Formula (I) were determined from a fit of the equation to the concentration-response plot of the fractional activity as a function of […]. For some experiments, quantitative NMR spectroscopy (qNMR) was used to measure concentration of the initial 100% DMSO compound solutions and, using the same fitting method, qKd values were determined.
On the technique in general: Differential scanning fluorimetry follows unfolding on heating by fluorescence.

Test [2] concerns the target T4, mutant MGL (mut-MGLL 11-313 L179S L186S) (Homo sapiens, UniProt Q99685, L169S/L176S).
T4 construct: purified mutant MGL (mut-MGLL 11-313 L179S L186S)
T4 sequence (Q99685 1-303 L169S/L176S): T1 sequence (Q99685 1-303) with L169S, L176S
In words: MGL Enzyme Activity Assay, purified mutant MGL, 4MU-B substrate. The format is biochemical. Conditions: mutant MGL 5 nM, 4MU-B 10 μM, 37° C.; read-out: MGL mutant inh IC50. In short, it runs like this:
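Purified mutant MGL (5 nM final) with 10 μM 4MU-B in 20 mM PIPES pH 7.0, 150 mM NaCl, 0.001% Tween 20; compounds 17 to 0.0003 μM final. Fluorescence (ex 335/em 440 nm) followed 5 min at 37 °C; IC50 from fit of fractional activity versus inhibitor concentration.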

What is called IC50 is the concentration that gives 50% inhibition. Usually Kd stands for a measure of binding affinity in units of concentration. A lower Kd goes with a tighter complex. Take `O=C(NC1CN(C2CN(C(=O)c3cc4ccc(C(F)(F)F)cc4s3)C2)C1)c1nccs1` [Cpd 7, N-(1′-{[6-(Trifluoromethyl)-1-benzothiophen-2-yl]carbonyl}-1,3′-biazetidin-3-yl)-1,3-thiazole-2-carboxamide]: the IC50 in test [1] was under 5 nM; in test [2], 10 nM. Further, the activity at 1 µM at MGL came to 243%. Besides, the affinity at mutant MGL, expressed as Kd, was 10 nM.

Consider `Cc1cc(-c2cccc(C(F)(F)F)c2)ccc1C(=O)N1CC(N2CC(NC(=O)c3nccs3)C2)C1` [Cpd 58, N-(1′-{[3-Methyl-3′-(trifluoromethyl)biphenyl-4-yl]carbonyl}-1,3′-biazetidin-3-yl)-1,3-thiazole-2-carboxamide], for which, in test [1], the IC50 worked out at 8 nM. Further, the activity at 1 µM at MGL amounted to 157%. At mutant MGL, this compound gave a Kd of 66.6 nM.

On to `O=C(NC1CN(C2CN(C(=O)c3ccc4nc(-c5ccccc5)sc4c3)C2)C1)c1nccs1` [Cpd 4, N-{1′-[(2-Phenyl-1,3-benzothiazol-6-yl)carbonyl]-1,3′-biazetidin-3-yl}-1,3-thiazole-2-carboxamide], for which the results for the IC50 in test [1] and in test [2] were 13 nM and 7 nM, respectively. The activity at 1 µM on MGL came to 148%. In addition, binding at mutant MGL was put at a Kd of 143 nM.

Take `Cc1cc(-c2ccc(C(F)(F)F)cc2)ccc1C(=O)N1CC(N2CC(N3Cc4scnc4C3=O)C2)C1` [Cpd 105, 5-(1′-{[3-Methyl-4′-(trifluoromethyl)biphenyl-4-yl]carbonyl}-1,3′-biazetidin-3-yl)-5,6-dihydro-4H-pyrrolo[3,4-d][1,3]thiazol-4-one]: in test [1], the IC50 was 887 nM. Also, the affinity at mutant MGL, expressed as Kd, was 3640 nM.

For the compound `O=C(NC1CN(C2CN(C(=O)c3ccc(-c4cccc(C(F)(F)F)c4)cc3F)C2)C1)c1nccs1` [Cpd 64, N-(1′-{[3-Fluoro-3′-(trifluoromethyl)biphenyl-4-yl]carbonyl}-1,3′-biazetidin-3-yl)-1,3-thiazole-2-carboxamide], the IC50 in test [1] is under 5 nM. In addition, the activity at 1 µM at MGL worked out at 253%. Moreover, the Kd on mutant MGL was 20 nM.

Consider `Cc1c(C(=O)N2CC(N3CC(N4Cc5scnc5C4=O)C3)C2)sc2cc(C(F)(F)F)ccc12` [Cpd 103, 5-(1′-{[3-Methyl-6-(trifluoromethyl)-1-benzothiophen-2-yl]carbonyl}-1,3′-biazetidin-3-yl)-5,6-dihydro-4H-pyrrolo[3,4-d][1,3]thiazol-4-one], for which the IC50 in test [1] amounted to 21 nM. On MGL, the activity at 1 µM came to 360%. Moreover, the affinity at mutant MGL, expressed as Kd, was 33 nM.

Turning to `O=C(c1cc2ccc(-c3ccccc3)cc2s1)N1CC(N2CC(N3Cc4ccccc4C3=O)C2)C1` [Cpd 98, 2-{1′-[(6-Phenyl-1-benzothiophen-2-yl)carbonyl]-1,3′-biazetidin-3-yl}-2,3-dihydro-1H-isoindol-1-one], the IC50 in test [1] and in test [2] was under 5 nM in each case. Besides, the activity at 10 µM on MGL came out at 613%.

In the case of `O=C(c1ccc2cc(-c3ccccc3)ccc2c1)N1CC(N2CC(N3Cc4ccccc4C3=O)C2)C1` [Cpd 69, 2-{1′-[(6-Phenylnaphthalen-2-yl)carbonyl]-1,3′-biazetidin-3-yl}-2,3-dihydro-1H-isoindol-1-one], the IC50 in test [1] was under 5 nM; in test [2] it was 8 nM. Also, the activity at 10 µM at MGL worked out at 600%.

For `O=C(NC1CN(C2CN(C(=O)c3ccc(Cc4ccc(C(F)(F)F)cc4)cc3)C2)C1)c1nccs1` [Cpd 16, N-[1′-({4-[4-(Trifluoromethyl)benzyl]phenyl}carbonyl)-1,3′-biazetidin-3-yl]-1,3-thiazole-2-carboxamide], the IC50 in test [1] was under 5 nM; in test [2], 32 nM. Also, the activity at 10 µM at MGL worked out at 123%.

As to `O=C(c1ccc2c(-c3ccccc3)cccc2c1)N1CC(N2CC(N3Cc4ccccc4C3=O)C2)C1` [Cpd 97, 2-{1′-[(5-Phenylnaphthalen-2-yl)carbonyl]-1,3′-biazetidin-3-yl}-2,3-dihydro-1H-isoindol-1-one], the IC50 in test [1] and in test [2] was under 5 nM in each case. Also, the activity at 10 µM on MGL amounted to 518%.

As to `Cc1cc(-c2cccc(C(F)(F)F)c2)ccc1C(=O)N1CC(N2CC(N3Cc4scnc4C3=O)C2)C1` [Cpd 104, 5-(1′-{[3-Methyl-3′-(trifluoromethyl)biphenyl-4-yl]carbonyl}-1,3′-biazetidin-3-yl)-5,6-dihydro-4H-pyrrolo[3,4-d][1,3]thiazol-4-one], the IC50 in test [1] was determined as 66 nM. Besides, at mutant MGL, binding was characterised by a dissociation constant (Kd) of 215 nM.

With `O=C(NC1CN(C2CN(C(=O)c3ccc(Cc4ccccc4)cc3)C2)C1)c1nccs1` [Cpd 10, N-{1′-[(4-Benzylphenyl)carbonyl]-1,3′-biazetidin-3-yl}-1,3-thiazole-2-carboxamide], the IC50 in test [1] worked out at 70 nM; in test [2], 15 nM. The activity at 10 µM at MGL is 659%.

With `O=C(c1ccc2c(ccn2-c2ccc(C(F)(F)F)cc2)c1)N1CC(N2CC(N3Cc4scnc4C3=O)C2)C1` [Cpd 106, 5-[1′-({1-[4-(Trifluoromethyl)phenyl]-1H-indol-5-yl}carbonyl)-1,3′-biazetidin-3-yl]-5,6-dihydro-4H-pyrrolo[3,4-d][1,3]thiazol-4-one], the IC50 in test [1] is under 5 nM. Besides, at MGL, the activity at 1 µM was determined as 414%.

With `O=C(NC1CN(C2CN(C(=O)c3ccc4c(ccn4-c4ccc(F)c(F)c4)c3)C2)C1)c1cscn1` [Cpd 54, N-(1′-{[1-(3,4-Difluorophenyl)-1H-indol-5-yl]carbonyl}-1,3′-biazetidin-3-yl)-1,3-thiazole-4-carboxamide], in test [1], the IC50 was determined as 5 nM. The activity at 1 µM at MGL was found to be 315%.

For the compound `O=C(NC1CN(C2CN(C(=O)c3ccc4c(ccn4-c4ccc(F)cc4F)c3)C2)C1)c1nccs1` [Cpd 55, N-(1′-{[1-(2,4-Difluorophenyl)-1H-indol-5-yl]carbonyl}-1,3′-biazetidin-3-yl)-1,3-thiazole-2-carboxamide], the IC50 in test [1] was found to be 5 nM. The activity at 1 µM at MGL is 353%.

Regarding `CN(C(=O)c1cscn1)C1CN(C2CN(C(=O)c3cc4ccc(C(F)(F)F)cc4s3)C2)C1` [Cpd 48, N-Methyl-N-(1′-{[6-(trifluoromethyl)-1-benzothiophen-2-yl]carbonyl}-1,3′-biazetidin-3-yl)-1,3-thiazole-4-carboxamide], the IC50 was 12900 nM in test [1] and 8120 nM in test [2]. This compound also returned a Kd at mutant MGL of over 31000 nM.
